# Laboratory results: patent publication EP2359816B1, “Aripiprazole formulations” (Arven Ilac Sanayi ve Ticaret A.S., priority 2010, dated 2011)
# Assay: physchem
# Assay type: physicochemical
# Text: The following results were obtained in our solubility study of aripiprazole monohydrate.
structure (smiles),measurement,setting,value
"O=C1CCc2ccc(OCCCCN3CCN(c4cccc(Cl)c4Cl)CC3)cc2N1 [aripiprazole monohydrate, 7-[4-[4-(2,3-dichlorophenyl)-1-piperazinyl]butoxy]-3,4-dihydrocarbostyril]",dissolved,pH 1.2 (0.1 N NCl),25 mg per 250 mL
same,dissolved,pH 1.2 (USP buffer),9.75 mg per 250 mL
same,Cmax (mg/250 mL) (Aripiprazole),pH 4.5,8.25 mg/250 mL
same,dissolved,pH 4.5,8.25 mg per 250 mL
same,solubility,"pH 4.5, aqueous buffer, Maximum Solubility (Cmax mg/mL)",33 µg/mL
same,Cmax (mg/250 mL) (Aripiprazole),pH 6.8,0 mg/250 mL
same,Maximum Solubility (Cmax mg/mL),pH 6.8,0 mg/mL
same,dissolved,pH 6.8,not dissolved
